{"source": "patent US20060205809A1", "about": "“Pharmaceutical preparation containing palladium complex compounds and the uses thereof for treating cancer and autoimmune disease” (priority 2002, published 2006)", "key": {"SK-MEL 25 (melanoma)": {"tested_on": "SK-MEL 25 (melanoma)", "test": "Cytotoxicity assay, 2 h drug exposure at pH 6.8 or 7.4, crystal violet staining", "assay_type": "cell-based, human", "conditions": "then 48 h", "description": "(§1) The Pd-complexes were dissolved in acetone (1 mg/ml stock solution). Human cancer cell lines SK-MEL 25 (melanoma) and CALU-6 (lung cancer) were used for the determination of the cytotoxic activity of Pd-complexes. For comparison, the well known anti-tumor drugs cisplatin and corresponding platinum complexes were included. Cells were seeded at a density of 2×10^6 cells/96 well plate. After 24 h, tissue culture medium was removed and fresh medium supplemented with 10% fetal calf serum and 100 units/ml penicillin/streptomycin containing either 2.2 g/l (pH 7.4) or 0.85 g/l (pH 6.8) NaHCO3 was added. After 1 hour of equilibration in an atmosphere containing 5% CO2, drugs were added at various concentrations (50, 25, 12.5, 6.25, 3.1, 1.6, 0.8 μg/ml) in quadruplicate. Untreated cultures served as controls. Two hours later, the culture medium was replaced with 0.1 ml of fresh tissue culture medium (pH 7.4, 10% fetal calf serum). Culture plates were then incubated for 48 h (SK-MEL 25) or 72 h (Calu-6) at 37° C. Then, cells were fixed with 3% formaldehyde and stained with 1% crystalviolet. The number of viable cells is proportional to the amount of bound cristalviolet. Therefore, the relative cell number could be determined at an Antos 2001 ELISA reader (550 nm). Dose response curves were established from the OD data and the concentration at which the cell number was reduced to 50% of the control (IC50) was determined."}, "CALU-6 (lung cancer)": {"tested_on": "CALU-6 (lung cancer)", "test": "Cytotoxicity assay, 2 h drug exposure at pH 6.8 or 7.4, crystal violet staining", "assay_type": "cell-based, human", "conditions": "then 72 h", "description": "as §1"}, "[1]": {"conditions": "SK-MEL 25, pH 6.8, 2 h drug exposure, read-out: IC50-values, SK-MEL 25, pH 6.8"}, "[2]": {"conditions": "SK-MEL 25, pH 7.4, 2 h drug exposure, read-out: IC50-values, SK-MEL 25, pH 7.4"}, "[3]": {"conditions": "CALU-6, pH 6.8, 2 h drug exposure, read-out: IC50-values, CALU-6, pH 6.8"}, "[4]": {"conditions": "CALU-6, pH 7.4, 2 h drug exposure, read-out: IC50-values, CALU-6, pH 7.4"}}, "note": "Read-outs that look alike come from different tables or passages of the source."}
{"molecule": "N.N.[Cl][Pt][Cl]", "note": "[Cisplatin, reference compound]", "values": [{"measurement": "IC50", "setting": "SK-MEL 25 (melanoma); [1]", "value": 25, "unit": "µM"}, {"measurement": "IC50", "setting": "SK-MEL 25 (melanoma); [2]", "value": 25, "unit": "µM"}, {"measurement": "IC50", "setting": "CALU-6 (lung cancer); [3]", "value": 6.25, "unit": "µM"}, {"measurement": "IC50", "setting": "CALU-6 (lung cancer); [4]", "value": 6.25, "unit": "µM"}]}
{"molecule": "CCCCCCOC(=S)[S-].CCCCCCOC(=S)[S-].[Pd+2]", "note": "[compound 6, Bis(O-hexyl-dithiocarbonato)palladium(II)]", "values": [{"measurement": "IC50", "setting": "SK-MEL 25 (melanoma); [1]", "value": 10, "unit": "µM"}, {"measurement": "IC50", "setting": "SK-MEL 25 (melanoma); [2]", "value": 10, "unit": "µM"}, {"measurement": "IC50", "setting": "CALU-6 (lung cancer); [3]", "value": 3.1, "unit": "µM"}, {"measurement": "IC50", "setting": "CALU-6 (lung cancer); [4]", "value": 6.25, "unit": "µM"}]}
{"molecule": "CCCCOC(=S)[S-].CCCCOC(=S)[S-].[Pd+2]", "note": "[compound 5, Bis(O-butyl-dithiocarbonato)palladium(II)]", "values": [{"measurement": "IC50", "setting": "SK-MEL 25 (melanoma); [1]", "value": 1, "unit": "µM"}, {"measurement": "IC50", "setting": "SK-MEL 25 (melanoma); [2]", "value": 3.1, "unit": "µM"}, {"measurement": "IC50", "setting": "CALU-6 (lung cancer); [3]", "value": 1, "unit": "µM"}, {"measurement": "IC50", "setting": "CALU-6 (lung cancer); [4]", "value": 2.5, "unit": "µM"}]}
{"molecule": "CCOC(=S)[S][Pd][S]C(=S)OCC", "note": "[compound 3, Bis(O-ethyl-dithiocarbonato)palladium(II)]", "values": [{"measurement": "IC50", "setting": "SK-MEL 25 (melanoma); [1]", "value": 5, "unit": "µM"}, {"measurement": "IC50", "setting": "SK-MEL 25 (melanoma); [2]", "value": 14, "unit": "µM"}, {"measurement": "IC50", "setting": "CALU-6 (lung cancer); [3]", "value": 2, "unit": "µM"}, {"measurement": "IC50", "setting": "CALU-6 (lung cancer); [4]", "value": 8, "unit": "µM"}]}
{"molecule": "S=C([S-])OC1CCCCC1.S=C([S-])OC1CCCCC1.[Pd+2]", "note": "[compound 1, Bis(O-cyclohexyl-dithiocarbonato)palladium(II)]", "values": [{"measurement": "IC50", "setting": "SK-MEL 25 (melanoma); [1]", "value": 6, "unit": "µM"}, {"measurement": "IC50", "setting": "SK-MEL 25 (melanoma); [2]", "value": 10, "unit": "µM"}, {"measurement": "IC50", "setting": "CALU-6 (lung cancer); [3]", "value": 2, "unit": "µM"}, {"measurement": "IC50", "setting": "CALU-6 (lung cancer); [4]", "value": 4, "unit": "µM"}]}
{"molecule": "CC(C)OC(=S)[S-].CC(C)OC(=S)[S-].[Pt+2]", "note": "[Bis(O-isopropyl-dithiocarbonato)platin, reference compound]", "values": [{"measurement": "IC50", "setting": "SK-MEL 25 (melanoma); [1]", "value": 6, "unit": "µM"}, {"measurement": "IC50", "setting": "SK-MEL 25 (melanoma); [2]", "value": 12, "unit": "µM"}, {"measurement": "IC50", "setting": "CALU-6 (lung cancer); [3]", "value": 6, "unit": "µM"}, {"measurement": "IC50", "setting": "CALU-6 (lung cancer); [4]", "value": 10, "unit": "µM"}]}
{"molecule": "CCC(C)COC(=S)[S][Pd][S]C(=S)OCC(C)CC", "note": "(stereo not shown) [compound 4, Bis(O-(2-methyl)-butyl-dithiocarbonato)palladium(II)]", "values": [{"measurement": "IC50", "setting": "SK-MEL 25 (melanoma); [1]", "value": 6, "unit": "µM"}, {"measurement": "IC50", "setting": "SK-MEL 25 (melanoma); [2]", "value": 9, "unit": "µM"}, {"measurement": "IC50", "setting": "CALU-6 (lung cancer); [3]", "value": 2, "unit": "µM"}, {"measurement": "IC50", "setting": "CALU-6 (lung cancer); [4]", "value": 6, "unit": "µM"}]}
{"molecule": "COC(=S)[S-].COC(=S)[S-].[Pd+2]", "note": "[compound 7, Bis(O-methyl-dithiocarbonato)palladium(II)]", "values": [{"measurement": "IC50", "setting": "SK-MEL 25 (melanoma); [1]", "value": 4.5, "unit": "µM"}, {"measurement": "IC50", "setting": "SK-MEL 25 (melanoma); [2]", "value": 6.2, "unit": "µM"}, {"measurement": "IC50", "setting": "CALU-6 (lung cancer); [3]", "value": 1.6, "unit": "µM"}, {"measurement": "IC50", "setting": "CALU-6 (lung cancer); [4]", "value": 4.5, "unit": "µM"}]}
{"molecule": "CCOC(=S)[S-].CCOC(=S)[S-].[Pt+2]", "note": "[Bis(O-ethyl-dithiocarbonato) platin, reference compound]", "values": [{"measurement": "IC50", "setting": "SK-MEL 25 (melanoma); [1]", "value": 21, "unit": "µM"}, {"measurement": "IC50", "setting": "SK-MEL 25 (melanoma); [2]", "value": 45, "unit": "µM"}, {"measurement": "IC50", "setting": "CALU-6 (lung cancer); [3]", "value": 12, "unit": "µM"}, {"measurement": "IC50", "setting": "CALU-6 (lung cancer); [4]", "value": 28, "unit": "µM"}]}
{"molecule": "CC(C)OC(=S)[S][Pd][S]C(=S)OC(C)C", "note": "[compound 2, Bis(O-isopropyl-dithiocarbonato)palladium(II)]", "values": [{"measurement": "IC50", "setting": "SK-MEL 25 (melanoma); [1]", "value": 0.8, "unit": "µM"}, {"measurement": "IC50", "setting": "SK-MEL 25 (melanoma); [2]", "value": 1.3, "unit": "µM"}, {"measurement": "IC50", "setting": "CALU-6 (lung cancer); [3]", "value": 0.6, "unit": "µM"}, {"measurement": "IC50", "setting": "CALU-6 (lung cancer); [4]", "value": 1.6, "unit": "µM"}]}
